Results published in patent US10548883B2, “Benzotriazole-derived α and β-unsaturated amide compound used as TGF-β RI inhibitor” (GENFLEET THERAPEUTICS (SHANGHAI) INC., priority 2016, dated 2020).
Where “and” joins values, the source holds several entries; their conditions need not be identical. Equal entries are not always repeated.

Tests used:
[1] = test system: NIH/3T3 mouse embryonic cells; assay: Test of proliferation inhibition on NIH/3T3 mouse embryonic cells (CellTiter-Glo, with TGF-β1); assay type: cell-based; conditions: NIH3T3, 0.2 ng/mL TGF-β1, 72 h
Description: Promega's Luminescent Cell Viability Assay (CellTiter-Glo® method, i.e. ATP fluorescence activity detection and analysis), the compound is added to the cell culture plate for incubation. A substrate buffer for detecting intracellular ATP content was added on the day of detection. Slightly shake and centrifuge at 1000 rpm for 1 min. Tested after standing for 10 min. The assay plate was analyzed using Envision multifunctional enzyme marker of PerkinElmer, Inc., and the analysis mode was fluorescence detection, and the data was expressed by the reading of chemiluminescence signal at 400-700 nm.
i) When the cell growth coverage is about 70%, the cell layer was washed with 10 mL of Duchenne phosphate buffer (D-PBS) which is calcium- and magnesium-free, then 2 mL of 0.25% trypsin-EDTA digest was added. The cell culture flask was placed in a CO2 carbon dioxide incubator at 37° C. and incubated for 3-5 min, then 8 mL of complete culture medium containing 2% FBS DMEM cells was added, and the cells were puffed evenly into single cell and counted by Vi-cell cytometer, and NIH/3T3 cell suspension was diluted to 0.375×10^5/mL cells.
ii) 50 μL of 2% DMEM-containing medium was added around the 384-well cell culture plate, then 40 μL of cell suspension was added to the remaining wells to 1500 cells per well. The distribution of the cells was observed under a microscope, and the cell plates were placed in a cell culture incubator with 5% CO2 at 37° C.
iii) Dilution of the compound refers to the preparation of the compound.
iv) A mixture of 2% fetal bovine serum containing 1 ng/mL TGF-β1 in DMEM medium was added manually to the compound intermediate plate, 20 μL per well.
v) The compound intermediate plate was shook slightly for 10 sec at 1000 rpm/min and centrifuge for 10 sec.
vi) 10 uL of the mixed liquid from steps 4 and 5 of each well was transferred to the inoculated cell plate to a final volume of 50 μL by using a Bravo liquid workstation, and the final concentration of TGF-β1 was diluted to 0.2 ng/mL, and centrifuged for 10 sec at 1000 rpm/min. The plates were placed in an incubator with 5% carbon dioxide at 37° C., 5% carbon dioxide for 72 h. The final concentration of the compound is: (unit: μM)
vii) The cell plate containing the compound was cultured in a cell incubator with 5% CO2 at 37° C. for 3 days.
viii) After that, 25 μL of ATP fluorescence activity detection solution was added to each well of the cell plate, then shook gently for about 1 min and centrifuged at 500 rpm/min for about 30 sec, and the reading was performed in an Envision instrument after standing at room temperature for 10 min in the dark.

CT-26 cells = assay: Tumor cell proliferation inhibition in BALB/c mouse model of subcutaneously transplanted CT-26 cells, alone or combined with BioXcell-mPD-L1; assay type: in vivo; conditions: for Tumor volume: average ± SEM, small molecules 75 mg/kg PO twice a day, BioXcell-mPD-L1 10 mg/kg IP twice a week
Description: The following table lists the animal grouping and dosing regimen of embodiment 1, the positive reference compound LY2157299 and the BioXcell PD-L1 monoclonal antibody (BioXcell-mPD-L1), which are used alone or in combination in vivo.
Mouse colon cancer CT-26 cells were cultured in vitro in a single layer, and culture conditions is RPMI1640 medium (Medium No. 1640, Roswell Parker Memorial Institute) supplemented with 10% fetal bovine serum at 37° C., 5% CO2. Passage was routinely digested with trypsin-EDTA twice a week. When the cell saturation is 80%-90%, the cells are collected, counted, and inoculated.
0.1 mL (1×10^5) CT-26 cells were subcutaneously inoculated into the right back of each BALB/c mouse. The mice were administered in groups according to the body weight of the mice on the second day after cell inoculation.
The experimental indicator is to investigate whether tumor growth is inhibited, delayed or cured. Tumor diameters were measured with Vernier calipers twice a week. The tumor volume is calculated as: V=0.5a×b^2, and a and b represent the long and short diameters of the tumor, respectively.
The antitumor effect of the compound was evaluated by TGI (%) or tumor proliferation rate T/C (%). TGI (%) reflects the tumor growth inhibition rate. Calculation of TGI (%): TGI (%)=[(1-(mean tumor volume at the end of administration of a treatment group—mean tumor volume at the start of administration of the treatment group))/(mean tumor volume at the end of treatment of the solvent control group)—mean tumor volume at the start of treatment of the solvent control group)]×100%.
Tumor proliferation rate T/C (%): The formula is as follows: T/C %=T/C×100% (T: treatment group; C: negative control group).
Tumor weights were measured after the end of the experiment and the percentage of T/Cweight was calculated. Tweight and Cweight represent the tumor weights of the drug-administered group and the vehicle control group, respectively.
Statistical analysis, including mean and standard error (SEM) of tumor volume at each time point for each group (see Table 4 for specific data). […] T-test was used for comparison between the two groups, and one-way analysis of variance was used for comparison between three or more groups. If there was a significant difference in F values, the Gass-Howell method was used to test. If there is no significant difference in F values, the Dunnet (2-sided) method is used for analysis. All data analysis was performed with SPSS 17.0. A significant difference was considered at p<0.05.

**Q.** Which results are given for `Cc1cccc(-c2nn3c(c2-c2ccc4ncnn4c2/C=C/C(N)=O)CCC3)n1` [Embodiment 1]?
**A.** IC50 [1]: 500 to 2000 nM; Tumor volume (CT-26 cells; day 10 of administration): 102 ± 19 mm^3; Tumor volume (CT-26 cells; day 13 of administration): 339 ± 89 mm^3; Tumor volume (CT-26 cells; day 15 of administration): 552 ± 147 mm^3; Tumor volume (CT-26 cells; day 17 of administration): 874 ± 240 mm^3; Tumor volume (CT-26 cells; day 20 of administration): 1331 mm^3 and 1331 ± 394 mm^3; Tumor proliferation rate T/C (CT-26 cells; twenty days after start of administration, 75 mg/kg PO and/or 10 mg/kg IP): 51%; Antitumor effect compared with the solvent control group (CT-26 cells; twenty days after start of administration, 75 mg/kg and/or 10 mg/kg): no significant antitumor effect
